Format in all cases: biochemical
For test [1], the target named is β2 subunit of the constitutive proteasome (Homo sapiens, UniProt P49720+Q99436).
In test [2] the target is β1 subunit of the constitutive proteasome (Homo sapiens, UniProt P28072+Q99436).
Test [3] deals with β5 subunit of the constitutive proteasome (Homo sapiens, UniProt P20618+P28074).

Where only a bound is given, the exact number is not on record here.

The IC50 is the concentration needed to halve the response being measured. A lower IC50 goes with greater potency.

`CCCC[C@H](NC(=O)[C@@H]1CCCN1C(=O)[C@H](C)NC(C)=O)C(=O)N[C@H](/C=C/S(=O)(=O)c1ccc(O)cc1)CC(C)C` [Ia, Ac-Ala-Pro-Nle-Leu-4-hydroxyphenyl-vinylsulfone]: the IC50 is greater than 100 µM in test [1], 4 ± 0.67 µM in test [2] and greater than 100 µM in test [3].

`COc1ccc(C[C@H](NC(=O)Cc2ccc3ccccc3c2)C(=O)N[C@@H](Cc2ccccc2)C(=O)N[C@H](/C=C/S(C)(=O)=O)CC(C)C)cc1` [IIb, (Tyr(Me)-Phe-Leu-methyl-vinylsulfone)-2-(naphthalen-2-yl)-acetamide]: the figures for the IC50 in test [1], in test [2] and in test [3] were greater than 100 µM, greater than 100 µM and 0.11 ± 0.02 µM, respectively.

`CCCC[C@H](NC(=O)[C@@H]1CCCN1C(=O)[C@H](C)NC(C)=O)C(=O)N[C@H](/C=C/S(C)(=O)=O)CC(C)C` [Ib, Ac-Ala-Pro-NLe-Leu-methyl-vinylsulfone]: the 50% inhibitory concentration (IC50) in test [1] was greater than 100 µM; in test [2], 7.8 ± 0.86 µM; in test [3] it was greater than 100 µM.

Regarding `COc1ccc(C[C@H](NC(=O)Cc2ccc3ccccc3c2)C(=O)N[C@@H](Cc2ccccc2)C(=O)N[C@H](/C=C/S(=O)(=O)c2ccc(O)cc2)CC(C)C)cc1` [IIa, (Tyr(Me)-Phe-Leu-4-hydroxyphenyl-vinylsulfone)-2-(naphthalen-2-yl)-acetamide], the IC50 in test [1] amounted to 78 ± 23 µM; in test [2] it was 32 ± 16 µM; in test [3] it was 0.07 ± 0.01 µM.
